The record followed here is ChEMBL document CHEMBL1136500, “1,3-dihydrobenzo[c]furan nucleoside analogues: additional studies of the thymine derivative” (Bioorg Med Chem Lett, 2003).

Series [1] concerns the target Human immunodeficiency virus type 1 reverse transcriptase (Human immunodeficiency virus 1) (UniProt Q72547). As to the kind of experiment: Inhibitory activity against human immunodeficiency virus-1 reverse transcriptase (HIV-1 RT) at a concentration up to 100 uM; IA-Inactive.
The target is the same in series [2]. The series can be described thus: Inhibitory activity against human immunodeficiency virus-1 reverse transcriptase (HIV-1 RT) at a concentration up to 10 uM; IA=Inactive.
Series [3] in a line: Half life at pH 7.3. It is filed as ADME. Particulars: buffer.
A short description of series [4]: Half life at pH 2.0. It is filed as ADME. As to conditions: buffer.
Series [5] in a line: Partition coefficient (logP). It counts as physicochemical. As to conditions: octanol/water.
A short description of series [6]: Half life at pH 1.2. Particulars: buffer. It counts as ADME.
In series [7] the target is Human immunodeficiency virus type 1 reverse transcriptase (Human immunodeficiency virus 1) (UniProt Q72547). As to the kind of experiment: Inhibitory activity against human immunodeficiency virus-1 reverse transcriptase (HIV-1 RT).

Activity calls are given as the source filed them. No cut-off for these calls is given here.

Turning to `Cc1cn([C@@H]2O[C@H](COP(=O)(O)OP(=O)(O)OP(=O)(O)O)c3ccccc32)c(=O)[nH]c1=O`, the result in series [1] was inactive.

Consider `Cc1cn([C@@H]2O[C@H](CO)c3ccccc32)c(=O)[nH]c1=O`, for which the result in series [2] was inactive. The half-life in series [3] was 34 days; in series [4], 31 days; in series [6], 18 days. This compound also came in with a logP in series [5] of 0.55.

Turning to `Cc1cn([C@H]2C=C[C@@H](CO)O2)c(=O)[nH]c1=O` [STAVUDINE], the half-life in series [3] was 6 days; in series [4], 5 days; in series [6], 3 days. In series [7], this compound had a 90% effect concentration (IC90) of 100 nM. In series [5], this compound registered a logP of -0.77.

Broadly, the half-life is how long it takes for the measured level to halve. Low readings indicate rapid decline, high ones slow decline. As usually defined, the logP is the decadic logarithm of the partition coefficient of the neutral form, usually between octanol and water. What is called IC90 is the concentration needed for an effect of 90%.
